Results on 2 molecules are retold here after patent US5843936A, “Topical administration of azaspiranes to prevent or treat skin conditions associated with hyperproliferation of keratinocytes” (priority 1996, dated 1998).

Structures can show the parent of a compound that is named as a salt.

In series [1] the test system is Human foreskin keratinocytes. Briefly: Mitotic activity of epidermal keratinocytes: inhibition of 3H-TdR incorporation into DNA. It is filed as cell-based. As for the experimental part:
The mitotic activity of epidermal keratinocytes is one of the most obvious histological features of the psoriatic lesion. Many cytotoxic drugs used to treat the disease are believed to function by direct inhibition of keratinocyte replication.
Human foreskin keratinocytes were cultured in KGM. When the dishes were approximately 50% covered by cells, SG was added to give final concentrations of 5×10^-5 to 5×10^-9 M. After 3 days, the cells were pulsed with ^3 H-TdR for 4 hours, and incorporation into DNA assayed by conventional means. The inhibition of incorporation in 2 experiments was as follows: […]

Series [2] has as its system human skin microvascular endothelial cells. Briefly: Effect on morphology and growth of endothelial cell cultures. It counts as cell-based. As for the experimental part:
Skin endothelial cells in psoriasis are intimately involved in initiating the inflammatory response. Agents which affect both the binding of T lymphocytes and the hyperproliferation of endothelial cells would be expected to have a major effect in controlling the skin lesions.
In this study, human skin microvascular endothelial cells were isolated both from foreskins removed at circumcision and from skin obtained following a facial cosmetic correction. The endothelial cells were grown in a modified Iscove's medium, and while in the growth phase, the effect of varying concentrations of spirogermanium was studied on both the morphology and the growth of the endothelial cell cultures. Final concentrations of spirogermanium in the growth medium were 1,000, 500, 100, 50, 10, 1.0 and 0.125 μg/ml.

Series [3] can be described thus: In vivo evaluation of efficacy in treating psoriasis. The following applies: moderate to severe psoriasis; documented (cited) procedures. As to the method: Compounds encompassed by structural formula (I) are evaluated in vivo for their efficacy in treating psoriasis. The methods of the following references are used in the evaluation: Berardesca et al., "Non-invasive Evaluation of Topical Calcipotriol versus Clobetasol in the Treatment of Psoriasis," Acta Derm Venereol (Stokh) 74:302-304 (1994); Elias et al., "A Controlled Trial of Topical Propylthiouracil in the Treatment of Patients with Psoriasis," J. Amer. Acad. Dermatol. 31(3):455-458; and Highton et al., "Calcipotriene Ointment 0.005% for Psoriasis: A Safety and Efficacy Study," J. Amer. Acad. Dermatol. 32(1):67-72 (1995).

The conditions of series [4]: hydrochloride salt, cited from earlier work.

As for `C[CH2][Ge]1([CH2]C)[CH2]CC2(CCN(CCCN(C)C)C2)C[CH2]1` [SG], the “inhibition of DNA synthesis in keratinocytes (in words)” value in series [1] was “very potent inhibitor of DNA synthesis in keratinocytes”. The cell death result in series [2] (0.125 μg/ml, after 1 week) is reported as “cell death was observed after 1 week”. Besides, the endothelial cell morphology entry in series [2] (10 μg/ml) was “vacuolization was observed before desquamation and ultimate cell death”; in series [2] (highest concentrations) it was “immediately rounded up and detached from the dish surface”. In series [3], the “efficacy in treating psoriasis” value is given as “effective for treating moderate to severe psoriasis”.

In the case of `C[CH2][Ge]1([CH2]C)[CH2]CC2(CCN(CCCN(C)C)C2)C[CH2]1` [spirogermanium HCl], the “solubility in 95% ethanol” value in series [4] (95% ethanol) is “freely soluble”. Moreover, the solubility in water result in series [4] (water) is listed as “freely soluble”.
